Test results: US9663478B2, “Benzotriazine oxides as drugs targeting Mycobacterium tuberculosis” (priority 2011, dated 2017)
≈ marks a conversion by molar mass, not a printed value.

Legend:
[1] = system: Mtb H37Rv; test: TB MIC - ITR (UIC), Institute for Tuberculosis Research; format: cell-based, Mycobacterium tuberculosis; details: for TB MIC - UIC: Tables P1, P2; for MIC: Mycobacterium tuberculosis, H37RV, Tables 1-4, read-out: TB MIC - ITR
[2] = in vitro; details: African green monkey, VERO Tox (CC50)
[3] = system: Mtb H37Rv; test: TB MIC - SRI, resazurin-based microplate assay; format: cell-based, Mycobacterium tuberculosis; details: Mycobacterium tuberculosis, H37RV, read-out: TB MIC - SRI
[4] = system: NRP Mtb H37Rv cells; test: Low-oxygen recovery assay (LORA) MIC; format: cell-based, Mycobacterium tuberculosis; details: for LORA MIC: Tables P1, P2, non-replicating M. tuberculosis; for MIC: Mycobacterium tuberculosis, H37RV, NRP Mtb, Tables 1-4 and text, read-out: LORA MIC - ITR
[5] = system: Salmonella typhimurium tester strain TA100; test: Salmonella/microsome plate incorporation assay (Ames screen), TA100; format: cell-based
Description: (§1) A liability in developing any bioreductively-activated antimicrobial drug is the potential for mutagenicity. Because the basis for activity of these compounds is the generation of intermediate radical species, undesirable mutagenicity poses a risk, as has been documented for many classes of bioreductive drugs, including the BTO tirapazamine (TPZ).^19,20 The most convenient methodology for assessing the potential to induce genetic damage is to use the plate incorporation method with Salmonella typhimurium strains TA98 and TA100, commonly known as the Ames assay. The Salmonella tester strains have mutations in the histidine operon, a mutation that leads to defective lipopolysaccharide (rfa), and a deletion that covers genes involved in the synthesis of biotin (bio) and in the repair of ultraviolet-induced DNA damage (uvrB).^21,22 These mutations make the strains more permeable to many molecules and increase their susceptibility to the mutagenic effects of these molecules. Given that the hypothesized mechanism of the BTO compounds is to selectively form cytotoxic radical species in bacteria over mammalian cells, a microbial mutagenicity assay is not ideal, but was used to benchmark their activities in this assay. […] Individual plate counts and their means and standard deviations, along with the condition of the background lawn, are presented in SI Table 2.
(§2) Experimental compounds were screened for microbial mutagenicity activity using the plate incorporation method with Salmonella typhimurium tester strains TA98 and TA100, in the presence and absence of an Aroclor 1254-induced rat-liver metabolic activation system containing 10% S9 (MA). The presence of the appropriate genetic characteristics was verified for the strains used in this study. Stock solutions were made by dissolving each test sample in dimethyl sulfoxide (DMSO) at 5 mg/ml. These initial stock concentrations were then serially diluted to achieve dose formulations of 100, 50, 10, 5, 1, 0.5, and 0.1 μg/plate (dosing volume 100 μl). Test plates were compared with the control plates for their revertant count and for the condition of the background bacterial lawn. A test article was considered a mutagen when the mean number of revertant colonies on the test plates exceeds the mean solvent control counts by at least a two-fold margin. Dose relatedness was also taken into account when evaluating a mutagenic response. Cytotoxicity was estimated by several parameters: a substantial decrease in the number of revertant colonies on the test plates, clearing or absence of the background bacterial lawn growth, formation of pinpoint nonrevertant colonies, or complete absence of bacterial growth.

[6] = system: Salmonella typhimurium tester strain TA98; test: Salmonella/microsome plate incorporation assay (Ames screen), TA98; format: cell-based; details: for Mean revertants per plate: Salmonella typhimurium
Description: as §1, §2

[7] = TA100, with metabolic activation (10% S9), 2 μg per plate, positive control
[8] = TA100, with metabolic activation (10% S9), 0.1 μg per plate
[9] = TA100, with metabolic activation (10% S9), 0.5 μg per plate
[10] = TA100, with metabolic activation (10% S9), 1 μg per plate
[11] = TA100, with metabolic activation (10% S9), 5 μg per plate
[12] = TA100, with metabolic activation (10% S9), 10 μg per plate
[13] = TA100, with metabolic activation (10% S9), 50 μg per plate
[14] = TA100, with metabolic activation (10% S9), 100 μg per plate
[15] = TA100, without metabolic activation, 0.1 μg per plate
[16] = TA100, without metabolic activation, 0.5 μg per plate
[17] = TA100, without metabolic activation, 1 μg per plate
[18] = TA100, without metabolic activation, 5 μg per plate
[19] = TA100, without metabolic activation, 10 μg per plate
[20] = TA100, without metabolic activation, 50 μg per plate
[21] = TA100, without metabolic activation, 100 μg per plate

C[C@@H](Nc1n[n+]([O-])c2ccccc2[n+]1[O-])C1CCCCC1 (racemic) [SRI-012261]
TB MIC - UIC [1]: 0.92 µg/mL | CC50 at 72 h [2]: 8.9 µg/mL (≈ 30.9 µM) | MIC ([3]; Tables P1-P3): 1.25 µg/mL (≈ 4.33 µM) | LORA MIC [4]: 0.36 µg/mL

[O-][n+]1nc(N[C@@H]2C[C@H]3CC[C@@H]2C3)[n+]([O-])c2ccccc21 (racemic) [SRI-012264]
TB MIC - UIC [1]: 0.6 µg/mL | CC50 at 72 h [2]: 3.4 µg/mL (≈ 12.5 µM) | MIC ([3]; Tables P1-P3): 0.625 µg/mL (≈ 2.3 µM) | LORA MIC [4]: 0.42 µg/mL

C[C@@H]1[C@H]2C[C@@H](C[C@H]1Nc1n[n+]([O-])c3ccccc3[n+]1[O-])C2(C)C (racemic) [SRI-012273]
TB MIC - UIC [1]: 0.48 µg/mL | CC50 at 72 h [2]: 4.6 µg/mL (≈ 14.6 µM) | MIC ([3]; Tables P1-P3): 1.25 µg/mL (≈ 3.98 µM) | LORA MIC [4]: 0.48 µg/mL

CC(=O)Nc1cc(/C=C/c2ccc([N+](=O)[O-])o2)ns1 [Cmpd 2]
MIC [1]: 3.8 µg/mL (≈ 13.6 µM) | CC50 at 72 h [2]: > 50 µg/mL | MIC ([3]; Tables 1-4 and text): 0.98 µg/mL (≈ 3.51 µM) | MIC [4]: 3.7 µg/mL (≈ 13.2 µM)

Nc1ccc2cc3ccccc3cc2c1 [Compound 2AN]
Mean revertants per plate [5, 7]: 490.0 | Ratio treated/solvent [5, 7]: 2.9 | Ratio treated/solvent ([6]; TA98, with metabolic activation (10% S9), 2 μg per plate, positive control): 15.3

CCC(COC)Nc1n[n+]([O-])c2ccccc2[n+]1[O-] (centres unmarked) [Compound 8i, 3-((1-methoxybutan-2-yl)amino)benzo[e][1,2,4]triazine 1,4-dioxide]
MIC [1]: 6.6 µg/mL (≈ 25 µM) | CC50 at 72 h [2]: > 50 µg/mL | MIC ([3]; Tables 1-4 and text): 10 µg/mL (≈ 37.8 µM) | MIC [4]: 4.9 µg/mL (≈ 18.5 µM)

CCC(COC)Nc1n[n+]([O-])c2cc(F)ccc2[n+]1[O-] (centres unmarked) [Compound 15ai, 7-fluoro-3-((1-methoxybutan-2-yl)amino)benzo[e][1,2,4]triazine 1,4-dioxide]
MIC [1]: 2 µg/mL (≈ 7.09 µM) | CC50 at 72 h [2]: 6.3 µg/mL (≈ 22.3 µM) | MIC ([3]; Tables 1-4 and text): 5 µg/mL (≈ 17.7 µM) | MIC [4]: 1.9 µg/mL (≈ 6.73 µM)

CCNc1n[n+]([O-])c2cc3c(cc2[n+]1[O-])CCC3 [Compound 15fa, 3-(ethylamino)-7,8-dihydro-6H-indeno[5,6-e][1,2,4]triazine 1,4-dioxide]
MIC [1]: 0.95 µg/mL (≈ 3.86 µM) | Mean revertants per plate [5, 8]: 145.5 | Ratio treated/solvent [5, 8]: 0.9 | Mean revertants per plate [5, 9]: 148.5 | Ratio treated/solvent [5, 9]: 0.9 | Mean revertants per plate [5, 10]: 185.0 | Ratio treated/solvent [5, 10]: 1.1 | Mean revertants per plate [5, 11]: 207.0 | Ratio treated/solvent [5, 11]: 1.2 | Mean revertants per plate [5, 12]: 298.5 | Ratio treated/solvent [5, 12]: 1.8 | Mean revertants per plate [5, 13]: 854.5 | Ratio treated/solvent [5, 13]: 5.1 | Mean revertants per plate [5, 14]: 1450.0 | Ratio treated/solvent [5, 14]: 8.6 | Mean revertants per plate [5, 15]: 127.0 | Ratio treated/solvent [5, 15]: 0.8 | Mean revertants per plate [5, 16]: 137.0 | Ratio treated/solvent [5, 16]: 0.8 | Mean revertants per plate [5, 17]: 150.5 | Ratio treated/solvent [5, 17]: 0.9 | Mean revertants per plate [5, 18]: 259.0 | Ratio treated/solvent [5, 18]: 1.6 | Mean revertants per plate [5, 19]: 299.5 | Ratio treated/solvent [5, 19]: 1.8 | Mean revertants per plate [5, 20]: 913.5 | Ratio treated/solvent [5, 20]: 5.6 | Mean revertants per plate [5, 21]: 1268.0 | Ratio treated/solvent [5, 21]: 7.8 | number of revertant colonies, TA100 ([5]; presence and absence of metabolic activation): dose-related increases in the number of revertant colonies | number of revertant colonies, TA98 [6]: dose-related increases in the number of revertant colonies | Mean revertants per plate ([6]; 0.1 μg per plate): 21.0 | Mean revertants per plate ([6]; 0.1 μg/plate): 35.5 | Mean revertants per plate ([6]; 0.5 μg per plate): 19.0 | Mean revertants per plate ([6]; 0.5 μg/plate): 36.0 | Mean revertants per plate ([6]; 1 μg per plate): 26.0 | Mean revertants per plate ([6]; 1 μg/plate): 30.5 | Mean revertants per plate ([6]; 5 μg per plate): 47.0 | Mean revertants per plate ([6]; 5 μg/plate): 37.0 | Mean revertants per plate ([6]; 10 μg per plate): 52.0 | Mean revertants per plate ([6]; 10 μg/plate): 45.0 | Mean revertants per plate ([6]; 50 μg per plate): 142.5 | Mean revertants per plate ([6]; 50 μg/plate): 141.0 | Mean revertants per plate ([6]; 100 μg per plate): 345.0 | Mean revertants per plate ([6]; 100 μg/plate): 215.5 | Ratio treated/solvent ([6]; TA98, with metabolic activation (10% S9), 0.1 μg per plate): 1.0 | Ratio treated/solvent ([6]; TA98, with metabolic activation (10% S9), 0.5 μg per plate): 1.0 | Ratio treated/solvent ([6]; TA98, with metabolic activation (10% S9), 1 μg per plate): 0.9 | Ratio treated/solvent ([6]; TA98, with metabolic activation (10% S9), 5 μg per plate): 1.0 | Ratio treated/solvent ([6]; TA98, with metabolic activation (10% S9), 10 μg per plate): 1.5 | Ratio treated/solvent ([6]; TA98, with metabolic activation (10% S9), 50 μg per plate): 4.0 | Ratio treated/solvent ([6]; TA98, with metabolic activation (10% S9), 100 μg per plate): 9.7 | Ratio treated/solvent ([6]; TA98, without metabolic activation, 0.1 μg per plate): 0.8 | Ratio treated/solvent ([6]; TA98, without metabolic activation, 0.5 μg per plate): 0.7 | Ratio treated/solvent ([6]; TA98, without metabolic activation, 1 μg per plate): 1.0 | Ratio treated/solvent ([6]; TA98, without metabolic activation, 5 μg per plate): 1.8 | Ratio treated/solvent ([6]; TA98, without metabolic activation, 10 μg per plate): 1.8 | Ratio treated/solvent ([6]; TA98, without metabolic activation, 50 μg per plate): 5.5 | Ratio treated/solvent ([6]; TA98, without metabolic activation, 100 μg per plate): 8.5 | MIC [4]: 0.83 µg/mL (≈ 3.37 µM)

[N-]=[N+]=[N-].[Na+] [SA]
Mean revertants per plate [5, 18]: 1620.0 | Ratio treated/solvent [5, 18]: 10.0

[O-][n+]1nc(NC2CC2)[n+]([O-])c2ccccc21 [SRI-012255]
TB MIC - UIC [1]: 1.82 µg/mL | CC50 at 72 h [2]: 20.7 µg/mL (≈ 94.9 µM) | LORA MIC [4]: 1.76 µg/mL
